Seven substances from patent publication US9580465B2, “Tissue protective peptides and peptide analogs for preventing and treating diseases and disorders associated with tissue damage” (ARAIM PHARMACEUTICALS, INC., priority 2008, dated 2017) can be followed below.

One assay concerns histamine. The experiment in a line: Histamine induced wheal formation, peptide given at time of challenge. In kind it is in vivo, Sprague-Dawley rats. To be noted: 30 μg/kg at time of histamine challenge. Here is the method:
Under isoflurane anesthesia, 12 Sprague-Dawley rats' abdomens were shaved and depilated. Each rat was then injected intravenously (via internal jugular) with a dilute solution of Evans Blue (30 mg/ml in saline, 1 ml/kg bw). After 5 minutes, 6 small doses of histamine (Histamine diphosphate, 20 microliters administered intradermally) in a rectangular pattern on each rat's abdomen. After fifteen minutes, when the wheal reaches its maximum size the wheal is photographed and the blister area was determined by digital planimetry. To test the efficacy of various peptides, the peptide of interest was administered to the rats intravenously shortly after the histamine injection.
Rats received either saline, Peptide IY (30 μg/kg), Peptide ID (30 μg/kg), or Peptide IW (30 μg/kg) at time of histamine challenge.
Rats received either saline, peptide JA (30 μg/kg), peptide IZ (30 μg/kg), peptide IW (30 μg/kg) or peptide ID (30 μg/kg) at time of histamine challenge.

A further assay has as its system bilateral renal ischemia. The experiment in a line: Bilateral renal ischemia assay. In kind it is in vivo, C57/BL6 mice. The procedure: Sixty male C57/BL6 mice (˜25 g; Charles River Laboratories) were anesthetized with ketamine (150 mg/kg) and xylazine (15 mg/kg) i.p. Each animal was placed on a homeothermic blanket set at 37° C., and after a mid-line laparotomy, the renal pedicles were clamped for 30 minutes using nontraumatic vascular clamps. Peptide ID was administered at the indicated dose via i.p. Injection at 1 minute, 6 hours, and 12 hours after reperfusion. In a single dose study, the mice received a control (PBS), 1 μg/kg of Peptide IG at 1 minute, 1 μg/kg of Peptide IG at 30 minutes, 1 μg/kg of Peptide ID at 6 hours, or 10 μg/kg of Peptide ID at 6 hours (12 mice per group). In a multiple dose study, the mice received either multiple doses of a control (PBS), 0.1 μg/kg of Peptide ID, 1 μg/kg of Peptide ID, or 10 μg/kg of Peptide ID at 1 minute, 6 hours and 12 hours into reperfusion.
Twenty-four hours later, mice were reanesthetized and blood was obtained by cardiac puncture. Plasma urea and creatine were used as indicators of renal dysfunction and aspartate aminotransferase was used as an indicator of renal injury. Data were analyzed using ANOVA followed by Dunnett's post hoc test comparison.

Assay [1] has as its system middle cerebral artery occlusion. The experiment in a line: Middle cerebral artery occlusion model. The class given is in vivo, Sprague Dawley rats. To be noted: after MCAO; 2 μg/kg bw i.v. upon reperfusion, then three injections at 2-hour intervals; FIG. 5. Here is the method:
Sprague Dawley rats (8 per group) are subjected to the following MCAO protocol Surgery was performed in accordance with the teachings of Brines et al, 2000, PNAS USA 97:10526-10531 (hereby incorporated by reference in its entirety. Briefly, the rats are anesthetized with chloral hydrate (400 mg/kg-bw, i.p.), the carotid arteries were visualized, and the right carotid was occluded by two sutures and severed. A burr hole adjacent and rostral to the right orbit allowed visualization of the middle cerebral artery (“MCA”), which was cauterized distal to the rhinal artery. To produce a penumbra (border zone) surrounding this fixed MCA lesion, the contralateral carotid artery was occluded for 1 hour by using […] provided by a fine forceps and then re-opened.
The rats were administered saline, Peptide ID as a single i.v. dose (2 μg/kg bw), or Peptide IX, […], SEQ ID NO: 301), a scrambled version of Peptide IC, SEQ ID NO: 281, as a single Lv. dose (2 μg/kg bw) upon reperfusion, followed by three additional injections at 2-hour intervals. For assessment of injury, rats are subjected to behavioral testing or the volume of the lesion is determined by tetrazolium staining of brain sections performed 24 hours post surgery in accordance with the previously noted protocol.
The volume of the lesion was then determined by tetrazolium staining of brain sections performed 24 hours post surgery.
Rats were also tested in a foot fault behavioral protocol. Rats were tested on an elevated stainless steel grid floor 30 cm×30 cm with grid size of 30 mm according to the protocol of Markgraf et al., 1992, Brain Research 575:238-246 (hereby incorporated by reference in its entirety). When placed on the grid, a rat would attempt to move around and occasionally place a foot, rather than on the grid, through a grid opening (“foot fault”). The number of foot faults was measured for a 1 minute period.
The number of foot faults is indicative of the cognitive impairment of the rats due to the MCAO, the fewer the number of foot faults the less cognitive impairment.

Another assay deals with pressure ulcer. The experiment in a line: Decubitus ulcer (pressure sore) assay. The class given is in vivo, Sprauge-Dawley rats. To be noted: 30 μg/kg sc daily; compared with all groups; FIG. 20. Here is the method:
A decubitus ulcer (pressure sore) assay was performed on 24 adult Sprauge-Dawley rats in accordance with the disclosure of Pierce et al., Selective A2A adenosine receptor activation reduces skin pressure ulcer formation and inflammation, Am J Physiol Heart Circ Physiol 281:67-74, 2001. Briefly, a ferromagnetic steel plate was implanted under a dorsal region of the rats skin. A rectangular permanent magnet was applied to the area of the skin under which the plate was implanted in order to compress the skin between the plate and the magnet. This compression reduced the flow of blood to the skin causing ischemia. The rats were subjected to a cycle of ischemia-reperfusion (2 hours ischemia with a 0.5 hour reperfusion) for a 72-hour period. […] Daily the area of the wound on each rat was measured for a period of 12 days.

For another assay, the system named is 9 L gliosarcoma cells. The experiment in a line: 9 L gliosarcoma implantation model, delayed treatment. The class given is in vivo, CD Fisher rats. To be noted: 25 nmole/kg i.p. daily starting two weeks after implantation, three weeks, FIG. 13, 14. Here is the method:
In accordance with the accordance with the protocol of Lampson et al. Cancer Res. 53:176-82:1993 described above, CD Fisher rats were implanted with 9 L gliosarcoma cells transfected with the LacZ gene by use of a Hamilton syringe. 100,000 cells in 10 microliters were injected into the right caudate.
ID with a short plasma half life, another receiving Peptide IW (pegylated form of Peptide IC) and the third group received saline. Peptides were given at a dose of 25 nmole/kg body weight. Three weeks later, the animals were sacrificed and serial 1 mm thick coronal sections cut through the brain and incubated with 5-bromo-4-chloro-3-indolyl-[beta]-D-galactopyranoside (Xgal). Tumor cells (containing the LacZ gene) metabolized Xgal into a dark blue stain, localizing the extent of tumor. High resolution digital images were obtained and the areas stained blue determined using planimetric methodology. Data is expressed as total area of tumor infiltration.

In assay [2] the test system is cisplatin-induced nephropathy. The experiment in a line: Cisplatin induced nephropathy. To be noted: CDDT 2 mg/kg i.p. twice a week; peptide 0.4 μg/kg three times a week for 5 weeks; FIG. 10. The class given is in vivo, rats. Here is the method:
Cancer chemotherapeutic agents such as cisplatin (CDDT) are known to induce renal injury among other toxicities. The ability of Peptide IC to protect rats form cisplatin-induced nephropathy was evaluated by administering 2 mg/kg CDDT intraperitoneally, twice a week for 5 weeks. Peptide IC was simultaneously administered at a dose of 0.4 μg/kg, three times a week for 5 weeks. Renal function was evaluated by measuring the volume of urine production.

Assay [3] deals with cisplatin induced neuropathy. The experiment in a line: Cisplatin induced peripheral neuropathy (hotplate latency). In kind it is in vivo, rats. To be noted: CDDT 2 mg/kg i.p. twice a week; peptide 0.4 μg/kg three times a week for 5 weeks; FIG. 11. The procedure: Also, CDDT is known to induce peripheral neuropathy, among other toxicities. Following the experimental design described above for renal function, the ability of Peptide IC to protect against peripheral neuropathy was also evaluated. 2 mg/kg CDDT was administered intraperitoneally, twice a week for 5 weeks. Peptide IC was simultaneously administered at a dose of 0.4 μg/kg, three times a week for 5 weeks. Neuropathy was evaluated by hotplate latency, the delay period between contact of the rat's foot to a warm surface, and the retraction of the foot.

Several values for one entry are separate records, joined by “and”; a condition that tells them apart may be missing. Identical values can stand only once. Entries after “also recorded” stand apart in the source; their conditions may differ. Square brackets hold non-standard residues; d marks the D form. Ends that are not written are not given here.

On to “GLpLSEARNQSEL [Peptide IY, reference compound]”, for which, in the assay with histamine (FIG. 18), the anti-inflammatory activity result is “did not exhibit anti-inflammatory activity” and the “wheal area (lesion area)” value is recorded as “about 0.6 cm^2”.

As to “GSWQRSLQDTE (Glucagon derived Peptide IH) [glucagon region]”, the “creatinine, urea and aspartate aminotransferase (biochemical markers of renal dysfunction)” value in the assay on bilateral renal ischemia (multiple doses 1 μg/kg at 1 minute, 6 hours and 12 hours into reperfusion, FIG. 7) is reported as “reduction in these biochemical markers of renal dysfunction”; in the assay with bilateral renal ischemia (multiple doses 10 μg/kg at 1 minute, 6 hours and 12 hours into reperfusion, FIG. 7) it was “reduction in these biochemical markers of renal dysfunction”; in the assay with bilateral renal ischemia (single dose 1 μg/kg at 6 hours into reperfusion, 24 hrs of reperfusion, FIG. 6), “reduction in these biochemical markers of renal dysfunction”; in the assay on bilateral renal ischemia (single dose 10 μg/kg at 6 hours into reperfusion, 24 hrs of reperfusion, FIG. 6), “reduction in these biochemical markers of renal dysfunction”.

Take “LSEQARNQSEL [Peptide IX, scrambled version of Peptide IC; called Peptide JA in b476, reference compound]”: the “wheal area (lesion area)” value with histamine (FIG. 19) is given as “about 0.6 cm^2”. Besides, in assay [1], the “number of foot faults in 1 minute period” value is listed as 20.1±2.1 foot faults.

Turning to “NAIIKNAYKKG (Beta endorphin derived Peptide IG) [beta endorphin region]”, the “wound (ulcer) size (area)” value with pressure ulcer was “smallest wound size”.

For the substance “PEG-QEQLERALNSS (XEQLERALNSS; PEG; Peptide IW) [pegylated form of Peptide IC, extended half-life peptide]”, the “tumor size (total area of tumor infiltration)” value with 9 L gliosarcoma cells is listed as “marked reduction in tumor size; also recorded: exhibited the best outcomes; also recorded: reduction in size of the tumor equivalent to that achieved by immediate treatment with Peptide ID”; in the assay with 9 L gliosarcoma cells (listed as Peptide 1W), “reduced the size of tumor”. Also, the “wheal area (lesion area)” value in the assay with histamine (FIG. 18) is listed as approximately 0.3 cm^2.

Turning to “QEQLERALNSS (Helix B amino acids derived Peptide IC) [exterior-presenting amino acids of helix B of EPO]”, in assay [2], the “volume of urine production (renal function)” value is given as “protected against renal dysfunction due to CDDT; also recorded: substantially like that of the control (PBS) group”. Also, the “hotplate latency (time to withdraw paw)” value in assay [3] is recorded as “prevented the appearance of peripheral neuropathy; also recorded: substantially similar to the control group (PBS)”.

On to “SSNLARELQEQ ([dS][dS][dN][dL][dA][dR][dE][dL][dQ][dE][dQ]; also: retro-inverso) [Peptide IZ, Retro Inverso Peptide IC]”, for which, in the assay on histamine (FIG. 19), the “wheal area (lesion area)” value was ~0.4 cm^2 and 0.35 cm^2.
